Results on 1 compound are retold here after publication PMC5502391 (Chemical Science, 2015).

For this assay, the target named is avidin-bound TOPI-5 (Gallus gallus, UniProt P02701). Briefly: Displacement assay, TOPI-5–avidin complex. The format is binding. The note with it: complex 90 nM, compound 50 µM.
Sequence of avidin-bound TOPI-5 (P02701 25-152): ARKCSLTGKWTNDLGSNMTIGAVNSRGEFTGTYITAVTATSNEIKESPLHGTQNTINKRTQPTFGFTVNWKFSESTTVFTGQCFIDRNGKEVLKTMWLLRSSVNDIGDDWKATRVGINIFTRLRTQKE

Take `O=C(O)CCCC[C@@H]1SC[C@@H]2NC(=O)N[C@@H]21` [biotin]: the “displacement of avidin-bound TOPI-5” value is “displacement”.
